Values quoted from earlier work as cited in patent US20220287964A1, “TOPICAL FORMULATIONS COMPRISING CANNABIDIOL, METHOD OF PREP ARING THE COMPOSITION AND USE THEREOF” (CS Medica A/S, priority 2019, published 2022).

Settings: oral administration, given for comparison; cited from earlier work

C=C(C)[C@@H]1CCC(C)=C[C@H]1c1c(O)cc(CCCCC)cc1O [cannabidiol, Cannabidiol]
Absorbed through the gastrointestinal passage: less than 10%
